Results published in patent publication US20080076729A1, “Interferon-beta gene therapy using an improved, regulated expression system” (Schering Aktiengesellachaft, priority 2005, published 2008).

Test system: Mx1 RNA in murine L929 cells
Assay: Mx1 RNA induction in vitro in L929 cells (TaqMan RT-PCR)
Format: cell-based
Method: FIG. 5 illustrates Mx1 RNA induction in vitro (in L929 cells) by mIFN-β. L929 cells were seeded at 5×10^5 cells in 6 well plates and stimulated with increasing amounts of purified recombinant mIFN-β protein. Four hours after treatment the cells were harvested, RNA isolated, and Mx1 RNA quantitated by TaqMan analysis. Mx1 RNA expression is plotted as the fold increase relative to GAPDH RNA.
• A. Development of mIFN-β Biomarkers: For higher sensitivity in detection of murine IFN-β (mIFN-β) activity in vivo, biomarkers for mIFN-β activity were identified in mice after injection of mIFN-β protein or mIFN-β encoded gene therapy vectors. […] In the present study, the expression of the MxA mouse homologue, Mx1, (see e.g., Hug, H et al. Mol Cell Biol 8: 3065-79; Pavlovic, J (1993) Ciba Found Symp 176: 233-43) isolated from murine peripheral blood monocytes (PBMC's) was used to detect the presence of biologically active mIFN-β. • A quantitative PCR/RT-PCR assay was developed to quantitate the levels of Mx1 mRNA in murine PBMC's. […] The samples were analyzed with an Mx1-specific probe/primer combination. Mx1 expression was normalized to GAPDH expression measured in parallel using a standard assay from ABI. • The assay was validated in vitro by examining Mx1 RNA induction in murine L929 cells treated with purified recombinant mIFN-β protein (FIG. 5). […]

What does the source list for “mIFN-β: purified recombinant murine interferon-beta protein”?
EC50 of Mx1 RNA induction (4 hours treatment): approximately 50 pg/ml; increase in the level of Mx1 RNA (relative to GAPDH): 100 fold
